According to patent US20090061515A1, “Methods of inhibiting or suppressing cellular proliferation” (priority 2007, published 2009):

Legend:
Format in all cases: cell-based
[1] = test system: Normal Human Dermal Fibroblasts (NHDF); test: Cell growth / cell counts of NHDF during exposure and 96 hours after removal (Example 4); settings: for Cell Counts after exposure and additional 96 hours with compound removed: NHDF re-seeded at 45,000 cells/well; for cell growth during exposure, in words: 24 and 48 hours of exposure
Protocol: Examination of the cell growth effects upon 24 hour and 48 hour exposure of Normal Human Dermal Fibroblasts (NHDF) to 5,6-dihydroxy-hexan-2-one. After the 24 hour or 48 hour exposures, the 5,6-dihydroxy-hexan-2-one was removed and the cells were allowed to grow for an additional 96 hours, then evaluated for growth.
The assay used was a luminescent cell viability assay available under the trade designation CellTiter-Glo from Promega Corporation (Madison, Wis.). This assay determines the number of viable cells present based on the amount of adenosine triphosphate (ATP) present from the cell cytoplasm. The concentration of ATP present is proportional to the measured amount of a luminescent signal. […] The Normal Human Dermal Fibroblasts were available from Clonetics Corporation (San Diego, Calif.).
The 5,6-dihydroxy-hexan-2-one (1.2 grams) was dissolved in 12 ml of phosphate buffered saline and was filter sterilized through a 0.22 micrometer syringe filter prior to use. The 5,6-dihydroxy-hexan-2-one was further diluted to 10^−1, 10^−2, and 10^−3 using serial dilutions for the evaluation.
NHDF were seeded at 45,000 cells/well in four 24 well plates (two testing cell growth and two to re-seed after 24 and 48 hours without 5,6-dihydroxy-hexan-2-one). 24 hours after seeding, 5,6-dihydroxy-hexan-2-one was added to the cell culture plates (2 ml/well) at a concentration of 10^−1, 10^−2, and 10^−3. Assay plates were pulled for cell growth analysis at 24 and 48 hours after addition of the chemical compound. Samples were analyzed on the above-described assay according to a published method. The other two assay plates were washed and re-seeded at 45,000 cells/well at 24 and 48 hour time points without the presence of 5,6-dihydroxy-hexan-2-one. Both plates were grown for an additional 96 hours before a cell count was taken.
To determine proliferation potential post-exposure, cells were reseeded after exposure to 5,6-dihydroxy-hexan-2-one as follows. Additional groups of cells exposed to 5,6-dihydroxy-hexan-2-one for 24 and 48 hours were then washed thoroughly to remove 5,6-dihydroxy-hexan-2-one and harvested from the culture substrate. Those cells were then plated out at the same density as before, but without exposure to 5,6-dihydroxy-hexan-2-one. These two groups were supplied with fresh media and allowed to grow for 96 additional hours. Visual representation of the 10^−1 and 10^−2 groups can be seen in FIG. 15 (10^−1, re-seeded without 5,6-dihydroxy-hexan-2-one for 96 hours) and FIG. 16 (10^−2, re-seeded without 5,6-dihydroxy-hexan-2-one for 96 hours).

[2] = test system: Normal Human Dermal Fibroblast (NHDF) cells; test: Cell migration into scraped monolayer, NHDF (Example 5); settings: 1 and 10 mg/ml, 48 hours exposure then 72 hours growth
Protocol: (§1) In a similar manner, cell migration was explored in vitro by scraping the cell monolayer and culturing the cells in the presence of 5,6-dihydroxy-hexan-2-one at concentrations of 1 mg/ml and 10 mg/ml. FIGS. 20(a)-(l) are pictures that visually display the migration of coronary artery smooth muscle cells (CASMC) (FIGS. 20(a)-(f)) and normal human dermal fibroblast (NHDF) cells (FIGS. 20(g)-(l)) exposed to various concentrations of 5,6-dihydroxy-hexan-2-one after 48 hours exposure, then cultured an additional 72 hours after removal of the 5,6-dihydroxy-hexan-2-one as described in Example 5. Specifically, FIGS. 20(a) and (b) represent the CASMC control at time zero and 72 hours, respectively; FIGS. 20(c) and (d) represent CASMC (10 mg/ml) at time zero and 72 hours, respectively; and FIGS. 20(e) and (f) represent CASMC (1 mg/ml) at time zero and 72 hours, respectively. FIGS. 20(g) and (h) represent the NHDF cell control at time zero and 72 hours, respectively; FIGS. 20(i) and (j) represent NHDF cells (10 mg/ml) at time zero and 72 hours, respectively; and FIGS. 20(k) and (l) represent NHDF cells (1 mg/ml) at time zero and 72 hours, respectively.
(§2) Cell migration judged by the ability of cells to repopulate the scraped “acellular” space over time indicated no microscopically identifiable effect by the agent at the concentrations tested. […]

[3] = test system: coronary artery smooth muscle cells (CASMC); test: Cell migration into scraped monolayer, CASMC (Example 5); settings: 1 and 10 mg/ml, 48 hours exposure then 72 hours growth
Protocol: as §1, §2

[4] = test system: human umbilical vein endothelial cells (HUVEC); test: CyQuant cell proliferation after 48 hour exposure, HUVEC (Example 6); settings: for cell proliferation: 48 hour exposure
Protocol: Evaluation of the effects of 5,6-dihydroxy-hexan-2-one on human umbilical vein endothelial cells (HUVEC) and Glioblastoma/Astrocytoma cells U87 cellular proliferation and migration during 120 hours following 48 hour exposure to 5,6-dihydroxy-hexan-2-one at concentration of 10 mg/ml, 1 mg/ml, 100 micrograms/ml. Controls were cells not exposed to the agent.
In order to further explore the effects of this compound, experiments to evaluate the dose-effect response on the antiproliferative effect and on cell migration were conducted on two cell lines, human umbilical vein endothelial cells (HUVEC) and Glioblastoma/Astrocytoma cells (U87), over 120 hours after 48 hours of exposure to the compound.
A cell proliferation assay available under the trade designation CyQuant from Invitrogen Corporation (Carlsbad, Calif.) determines the density of cells in culture by using a green fluorescent dye which fluoresces when bound to cellular nucleic acids.

Structure (SMILES): CC(=O)CCC(O)CO (centres unmarked) [5,6-dihydroxy-hexan-2-one]
- Cell Counts after exposure and additional 96 hours with compound removed ([1]; 0.1 mg/ml, 24 Hour Group): 200,000 cells
- Cell Counts after exposure and additional 96 hours with compound removed ([1]; 0.1 mg/ml, 48 Hour Group): 207,500 cells
- Cell Counts after exposure and additional 96 hours with compound removed ([1]; 1 mg/ml, 24 Hour Group): 172,000 cells
- Cell Counts after exposure and additional 96 hours with compound removed ([1]; 1 mg/ml, 48 Hour Group): 165,000 cells
- Cell Counts after exposure and additional 96 hours with compound removed ([1]; 10 mg/ml, 24 Hour Group): 55,000 cells
- Cell Counts after exposure and additional 96 hours with compound removed ([1]; 10 mg/ml, 48 Hour Group): 65,000 cells
- Cell Counts after exposure ([1]; NHDF, 0.1 mg/ml, 24 Hour Group): 180,000 cells
- Cell Counts after exposure ([1]; NHDF, 0.1 mg/ml, 48 Hour Group): 305,000 cells
- Cell Counts after exposure ([1]; NHDF, 1 mg/ml, 24 Hour Group): 160,000 cells
- Cell Counts after exposure ([1]; NHDF, 1 mg/ml, 48 Hour Group): 150,000 cells
- Cell Counts after exposure ([1]; NHDF, 10 mg/ml, 24 Hour Group): 65,000 cells
- Cell Counts after exposure ([1]; NHDF, 10 mg/ml, 48 Hour Group): 80,000 cells
- cell growth during exposure, in words ([1]; NHDF, 10^-1 concentration group): only a minimal amount of growth
- cell growth after 96 hours without compound, in words ([1]; NHDF, 10^-1 group, after withdrawal): significant inhibition of cell growth
- cell growth during exposure, in words ([1]; NHDF, 10^-2 concentration group): reduced from the control
- cell growth after 96 hours without compound, in words ([1]; NHDF, 10^-2 group, after withdrawal): slight reduction of cell growth
- cell growth after withdrawal, in words ([1]; NHDF, 10^-3 concentration (lowest tested), after withdrawal): behave similar to controls
- cell growth during exposure, in words ([1]; NHDF, 10^-3 concentration group): continued to grow without problems
- cell migration [2]: not affected
- cell migration [3]: not affected
- cell proliferation ([4]; 10 mg/ml): antiproliferative effects
- time after withdrawal at which inhibitory effect was still observed ([4]; 10 mg/ml, after 48 hour exposure): ≥ 120 h
- cell proliferation ([4]; lowest concentration evaluated (100 micrograms/ml)): no antiproliferative effects
